Test results reported in the NIST ThermoML archive (doi:10.1021/acs.jced.8b00521).

Assay: xn = mol fraction of the nth substance listed
Settings: Liquid; for viscosity: Capillary tube (Ostwald / Ubbelohde) method; for mass density: Vibrating tube method

CCCCCCCC(=O)OCC [ethyl octanoate] + CCCCCCCCCCCC(=O)OC
Settings	mass density, 303.15 K [kg/m3]	mass density, 313.15 K [kg/m3]	viscosity, 303.15 K [mPa·s]	viscosity, 313.15 K [mPa·s]
100 kPa, x2 = 0.1	859	850	1.41	1.22
100 kPa, x2 = 0.1999	859	850	1.52	1.31
100 kPa, x2 = 0.3001	859	851	1.61	1.39
100 kPa, x2 = 0.4	860	851	1.71	1.46
100 kPa, x2 = 0.4999	860	851	1.82	1.55
100 kPa, x2 = 0.6001	860	852	1.96	1.65
100 kPa, x2 = 0.6999	861	852	2.08	1.75
100 kPa, x2 = 0.8001	861	852	2.19	1.85
100 kPa, x2 = 0.9	862	853	2.32	1.95
2940 kPa, x2 = 0.4999	862	–	1.9	–
2950 kPa, x2 = 0.6001	–	853	–	1.71
2960 kPa, x2 = 0.1	860	–	1.46	–
2960 kPa, x2 = 0.3001	861	–	1.66	–
2960 kPa, x2 = 0.8001	–	854	–	1.93
2970 kPa, x2 = 0.6999	–	854	–	1.82
2980 kPa, x2 = 0.1	–	851	–	1.25
2980 kPa, x2 = 0.1999	860	852	1.56	1.34
2980 kPa, x2 = 0.4	861	–	1.75	–
2990 kPa, x2 = 0.3001	–	852	–	1.43
2990 kPa, x2 = 0.6001	862	–	2.05	–
2990 kPa, x2 = 0.9	863	–	2.4	–
3000 kPa, x2 = 0.8001	863	–	2.28	–
3030 kPa, x2 = 0.4	–	853	–	1.52
3040 kPa, x2 = 0.4999	–	853	–	1.59
3070 kPa, x2 = 0.9	–	855	–	2.03
3080 kPa, x2 = 0.6999	862	–	2.15	–
5960 kPa, x2 = 0.3001	–	854	–	1.48
5980 kPa, x2 = 0.8001	865	–	2.37	–
5990 kPa, x2 = 0.6999	–	856	–	1.89
5990 kPa, x2 = 0.8001	–	856	–	1.99
6000 kPa, x2 = 0.1	–	853	–	1.29
6000 kPa, x2 = 0.1999	–	854	–	1.38
6000 kPa, x2 = 0.4999	863	–	1.96	–
6000 kPa, x2 = 0.6001	–	855	–	1.76
6010 kPa, x2 = 0.1	861	–	1.51	–
6020 kPa, x2 = 0.6001	864	–	2.12	–
6030 kPa, x2 = 0.1999	862	–	1.6	–
6040 kPa, x2 = 0.6999	864	–	2.24	–
6050 kPa, x2 = 0.4	–	854	–	1.56
6060 kPa, x2 = 0.9	865	–	2.48	–
6080 kPa, x2 = 0.3001	863	–	1.71	–
6090 kPa, x2 = 0.9	–	857	–	2.09
6100 kPa, x2 = 0.4	863	–	1.82	–
6100 kPa, x2 = 0.4999	–	855	–	1.65
8950 kPa, x2 = 0.8001	867	–	2.44	–
8980 kPa, x2 = 0.1999	863	–	1.66	–
8980 kPa, x2 = 0.3001	864	–	1.78	–
8990 kPa, x2 = 0.4	865	–	1.88	–
8990 kPa, x2 = 0.9	868	–	2.56	–
9030 kPa, x2 = 0.1	863	–	1.55	–
9040 kPa, x2 = 0.6999	866	–	2.31	–
9050 kPa, x2 = 0.6001	866	–	2.19	–
9090 kPa, x2 = 0.4999	865	–	2.02	–
11960 kPa, x2 = 0.6999	868	–	2.38	–
11960 kPa, x2 = 0.8001	869	–	2.5	–
11980 kPa, x2 = 0.1	864	–	1.59	–
12000 kPa, x2 = 0.3001	866	–	1.83	–
12010 kPa, x2 = 0.6001	867	–	2.24	–
12020 kPa, x2 = 0.1999	865	–	1.7	–
12020 kPa, x2 = 0.4999	867	–	2.08	–
12030 kPa, x2 = 0.9	869	–	2.64	–
12040 kPa, x2 = 0.4	866	–	1.94	–
14940 kPa, x2 = 0.6001	869	–	2.3	–
14970 kPa, x2 = 0.6999	870	–	2.44	–
14970 kPa, x2 = 0.8001	870	–	2.56	–
14980 kPa, x2 = 0.9	871	–	2.7	–
15020 kPa, x2 = 0.1	866	–	1.64	–
15040 kPa, x2 = 0.4999	868	–	2.13	–
15070 kPa, x2 = 0.1999	867	–	1.75	–
15070 kPa, x2 = 0.3001	867	–	1.88	–
15080 kPa, x2 = 0.4	868	–	2	–
